This is an account of results in US20240417405A1, “Substituted Spiro Derivatives” (Janssen Pharmaceutica NV, priority 2021, published 2024).

The subject of experiment [1] is MOLM14 cells. The experiment can be described thus: Proliferation assay, spheroid-like growth, MOLM14 (MLL-AF9 rearranged). Conditions: 8 days, confluence as measure of spheroid size, read-out: spheroid assay_OneTime MOLM14 IC50. The class given is cell-based, human. The procedure, abridged: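 Cells seeded in ultra-low attachment round-bottom wells (200 MOLM14 or 300 KO-52 per well) with compound at several concentrations, DMSO 0.3%, grown 8 days at 37° C, 5% CO2. Spheroid size taken as confluence from day-8 live-cell images; IC50 from variable-slope fit, DMSO as 0% and high-dose reference compound as 100% effect.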

The target in experiment [2] is T1, menin/MLL (terbium chelate-labeled menin, FITC-MBM1 peptide) (Homo sapiens, UniProt O00255, T541A).
T1 construct: Menin (a.a 1-610-6xhis tag)
T1 sequence (O00255 with tags, fused parts or gaps T541A): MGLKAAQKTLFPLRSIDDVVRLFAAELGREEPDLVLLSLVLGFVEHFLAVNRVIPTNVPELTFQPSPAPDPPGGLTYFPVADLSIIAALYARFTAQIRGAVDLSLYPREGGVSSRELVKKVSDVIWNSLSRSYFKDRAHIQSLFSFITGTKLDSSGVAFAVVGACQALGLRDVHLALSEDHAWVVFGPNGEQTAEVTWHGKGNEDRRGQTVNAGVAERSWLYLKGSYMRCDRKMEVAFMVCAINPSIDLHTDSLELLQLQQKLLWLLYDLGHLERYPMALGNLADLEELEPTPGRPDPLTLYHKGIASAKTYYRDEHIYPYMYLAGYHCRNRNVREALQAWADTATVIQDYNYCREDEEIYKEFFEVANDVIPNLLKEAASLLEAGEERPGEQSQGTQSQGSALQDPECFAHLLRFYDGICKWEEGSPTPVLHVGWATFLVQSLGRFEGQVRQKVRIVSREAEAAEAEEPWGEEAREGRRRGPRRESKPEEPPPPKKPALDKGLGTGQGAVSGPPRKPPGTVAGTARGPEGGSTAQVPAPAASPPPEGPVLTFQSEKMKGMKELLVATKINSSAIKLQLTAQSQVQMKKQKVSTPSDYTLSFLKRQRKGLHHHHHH
The experiment can be described thus: Menin/MLL homogenous time-resolved fluorescence (HTRF) assay. The note with it: 30 min incubation. Type of experiment: binding. The procedure, abridged:
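Terbium-labeled menin (aa 1-610, His-tagged; 200 pM) preincubated 30 min with compound, then 75 nM FITC-MBM1 peptide added for 15 min at ambient temperature in pH 7.5 Tris buffer, 0.5% DMSO. HTRF ratio 520/490 nm converted to % inhibition. IC50 came from an 11-point four-fold titration from 10 μM, floor 0.1 nM.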

For experiment [3], the system named is KO-52 cells. The experiment can be described thus: Proliferation assay, spheroid-like growth, KO-52 (MLL wildtype control cell line). The class given is cell-based, human. Conditions: KO-52 control cells, 8 days, confluence as measure of spheroid size, read-out: spheroid assay_OneTime KO-52 IC50. Here is the method:
The anti-proliferative effect of menin/MLL protein/protein interaction inhibitor test compounds was assessed in human leukemia cell lines. The cell line MOLM14 harbors a MLL translocation and expresses the MLL fusion proteins MLL-AF9, respectively, as well as the wildtype protein from the second allele. […] KO-52 was used as a control cell line containing two MLL (KMT2A) wildtype alleles in order to exclude compounds that display general cytotoxic effects.
MOLM14 cells were cultured in RPMI-1640 (Sigma Aldrich) supplemented with 10% heat-inactivated fetal bovine serum (HyClone), 2 mM L-glutamine (Sigma Aldrich) and 50 μg/ml gentamycin (Gibco). KO-52 cell lines were propagated in alpha-MEM (Sigma Aldrich) supplemented with 20% heat-inactivated fetal bovine serum (HyClone), 2 mM L-glutamine (Sigma Aldrich) and 50 μg/ml gentamycin (Gibco).
In order to assess the anti-proliferative effects, 200 MOLM14 cells, or 300 KO-52 cells were seeded in 200 μl media per well in 96-well round bottom, ultra-low attachment plates (Costar, catalogue number 7007). Cell seeding numbers were chosen based on growth curves to ensure linear growth throughout the experiment. Test compounds were added at different concentrations and the DMSO content was normalized to 0.3%. Cells were incubated for 8 days at 37° C. and 5% CO2. Spheroid like growth was measured in real-time by live-cell imaging (IncuCyteZOOM, Essenbio, 4× objective) acquiring images at day 8. Confluence (%) as a measure of spheroid size was determined using an integrated analysis tool.
In order to determine the effect of the test compounds over time, the confluence in each well as a measure of spheroid size, was calculated. Confluence of the highest dose of a reference compound was used as baseline for the LC (Low control) and the confluence of DMSO treated cells was used as 0% cytotoxicity (High Control, HC).
Absolute IC50 values were calculated as percent change in confluence as follows:
LC=Low Control: cells treated with e.g. 1 μM of the cytotoxic agent staurosporin, or e.g. cells treated with a high concentration of an alternative reference compound
GraphPad Prism (version 7.00) was used to calculate the IC50. Dose-response equation was used for the plot of % Effect vs Log 10 compound concentration with a variable slope and fixing the maximum to 100% and the minimum to 0%.

Read-outs that look alike come from different tables or passages of the source.

For `CC(C)[C@H]([C@H]1C[C@@H](N2C[C@H](O)C3(CC3)C2)C1)N1CC2(CCN(c3ncnnc3Oc3ccc(F)cc3-c3cncnc3C3CC3)C2)C1` (single isomer, unassigned) [Compound 45], the IC50 in experiment [1] (Homo sapiens, MOLM-14, 192 h) was less than 2 nM; in experiment [2] it was 0.2 nM; in experiment [3] (Homo sapiens, 192 h) it was 6.33 µM.
The like results for `CC(C)[C@H]([C@H]1C[C@@H](N2C[C@@H](O)C3(CC3)C2)C1)N1CC2(CCN(c3ncnnc3Oc3ccc(F)cc3-c3cncnc3C3CC3)C2)C1` (single isomer, unassigned) [Compound 46] were, in that order, 2 nM, 0.1 nM and 5.93 µM.
The like results for `CC(C)[C@H]([C@H]1C[C@@H](N2CC[C@@](C)(O)C2)C1)N1CC2(CCN(c3ncnnc3Oc3ccc(F)cc3-c3cncnc3C3CC3)C2)C1` (single isomer, unassigned) [Compound 47] were, in that order, 3 nM, 0.2 nM and 4.36 µM.
On the same counts, the results for `CC(C)[C@H]([C@H]1C[C@@H](N2CCCCC2)C1)N1CC2(CCN(c3ncnnc3Oc3ccc(F)cc3-c3cncnc3C3CC3)C2)C1` (single isomer, unassigned) [Compound 48] are 4 nM, 0.3 nM and 1.06 µM.
Take `CC(C)[C@H]([C@H]1C[C@H](N2CCCCC2)C1)N1CC2(CCN(c3ncnnc3Oc3ccc(F)cc3-c3cncnc3C3CC3)C2)C1` (single isomer, unassigned) [Compound 49]: the IC50 in experiment [1] (Homo sapiens, MOLM-14, 192 h) is 27 nM; in experiment [2] it was 0.6 nM; in experiment [3] (Homo sapiens, 192 h), 2.13 µM.
The like results for `CC(C)[C@H]([C@H]1C[C@@H](N2CCC[C@@H](C(=O)N(C)C)C2)C1)N1CC2(CCN(c3ncnnc3Oc3ccc(F)cc3-c3cncnc3C3CC3)C2)C1` (single isomer, unassigned) [Compound 50] were, in that order, less than 2 nM, 0.1 nM and greater than 15 µM.
With `CC(C)[C@H]([C@H]1C[C@@H](N2CCC[C@H](C(=O)N(C)C)C2)C1)N1CC2(CCN(c3ncnnc3Oc3ccc(F)cc3-c3cncnc3C3CC3)C2)C1` (single isomer, unassigned) [Compound 51], the IC50 was found to be 14 nM in experiment [1] (Homo sapiens, MOLM-14, 192 h); 0.1 nM in experiment [2]; 14.4 µM in experiment [3] (Homo sapiens, 192 h).
On the same counts, the results for `CC(C)[C@H]([C@H]1C[C@H](N2CCC[C@H](C(=O)N(C)C)C2)C1)N1CC2(CCN(c3ncnnc3Oc3ccc(F)cc3-c3cncnc3C3CC3)C2)C1` (single isomer, unassigned) [Compound 52] are 210 nM, 0.4 nM and 14 µM.
The like results for `CC(=O)N1CC2(CCN([C@H]3C[C@@H]([C@@H](C(C)C)N4CC5(CCN(c6ncnnc6Oc6ccc(F)cc6-c6cncnc6C6CC6)C5)C4)C3)C2)C1` (single isomer, unassigned) [Compound 53] were, in that order, 5 nM, 0.2 nM and 9.28 µM.
Take `CC(=O)N1CCC2C1CCN2[C@H]1C[C@@H]([C@@H](C(C)C)N2CC3(CCN(c4ncnnc4Oc4ccc(F)cc4-c4cncnc4C4CC4)C3)C2)C1` (single isomer, unassigned) [Compound 54]: the IC50 in experiment [1] was 28 nM; in experiment [2], 0.3 nM; in experiment [3] (Homo sapiens, 192 h) it was 4.96 µM.
On to `CC(=O)N1CCC2C1CCN2[C@H]1C[C@@H]([C@@H](C(C)C)N2CC3(CCN(c4ncnnc4Oc4ccc(F)cc4-c4cncnc4C4CC4)C3)C2)C1` (single isomer, unassigned) [Compound 55], for which the IC50 in experiment [1] came out at 95 nM; in experiment [2] it was 0.5 nM; in experiment [3], 6.43 µM.
For `CC(=O)N1CC2(CCCN2[C@H]2C[C@@H]([C@@H](C(C)C)N3CC4(CCN(c5ncnnc5Oc5ccc(F)cc5-c5cncnc5C5CC5)C4)C3)C2)C1` (single isomer, unassigned) [Compound 56], the IC50 in experiment [1] (Homo sapiens, MOLM-14, 192 h) was 350 nM; in experiment [2] it was 0.4 nM; in experiment [3] (Homo sapiens, 192 h), greater than 15 µM.
`CC(=O)N1CCC2CN([C@H]3C[C@@H]([C@@H](C(C)C)N4CC5(CCN(c6ncnnc6Oc6ccc(F)cc6-c6cncnc6C6CC6)C5)C4)C3)CC21` (single isomer, unassigned) [Compound 57]: the IC50 in experiment [1] amounted to 8 nM; in experiment [2], 0.1 nM; in experiment [3] (Homo sapiens, 192 h), 7.54 µM.
As to `CC(=O)N1CCC2CN([C@H]3C[C@@H]([C@@H](C(C)C)N4CC5(CCN(c6ncnnc6Oc6ccc(F)cc6-c6cncnc6C6CC6)C5)C4)C3)CC21` (single isomer, unassigned) [Compound 58], the IC50 in experiment [1] was 19 nM; in experiment [2] it was 0.1 nM; in experiment [3] it was greater than 15 µM.
For `CC(=O)N1CC[C@@]12CCN([C@H]1C[C@@H]([C@@H](C(C)C)N3CC4(CCN(c5ncnnc5Oc5ccc(F)cc5-c5cncnc5C5CC5)C4)C3)C1)C2` (single isomer, unassigned) [Compound 59], the IC50 amounted to 24 nM in experiment [1] (Homo sapiens, MOLM-14, 192 h); 0.1 nM in experiment [2]; 5.01 µM in experiment [3] (Homo sapiens, 192 h).
The like results for `CC(=O)N1CC[C@]12CCN([C@H]1C[C@@H]([C@@H](C(C)C)N3CC4(CCN(c5ncnnc5Oc5ccc(F)cc5-c5cncnc5C5CC5)C4)C3)C1)C2` (single isomer, unassigned) [Compound 60] were, in that order, 7 nM, 0.2 nM and 3.37 µM.
As for `CC(C)[C@H]([C@H]1C[C@@H](N2CCC(C)(C(=O)N(C)C)CC2)C1)N1CC2(CCN(c3ncnnc3Oc3ccc(F)cc3-c3cncnc3C3CC3)C2)C1` (single isomer, unassigned) [Compound 62], the IC50 in experiment [1] (Homo sapiens, MOLM-14, 192 h) came out at 4 nM; in experiment [2], 0.1 nM; in experiment [3] (Homo sapiens, 192 h) it was 6.26 µM.
The like results for `CC(=O)N1CC2CN([C@H]3C[C@@H]([C@@H](C(C)C)N4CC5(CCN(c6ncnnc6Oc6ccc(F)cc6-c6cncnc6C6CC6)C5)C4)C3)CC2C1` (single isomer, unassigned) [Compound 64] were, in that order, 2 nM, 0.1 nM and greater than 15 µM.
On the same counts, the results for `CC(=O)N1CC2CN([C@H]3C[C@H]([C@@H](C(C)C)N4CC5(CCN(c6ncnnc6Oc6ccc(F)cc6-c6cncnc6C6CC6)C5)C4)C3)CC2C1` (single isomer, unassigned) [Compound 65] are 130 nM, 0.2 nM and 11.8 µM.
